Assay results published in patent US7576101B2, “Composition for and treatment of demyelinating diseases and paralysis by administration of remyelinating agents” (Elan Pharmaceuticals, Inc., priority 2003, dated 2009).
“Also recorded” adds a separate entry of the source. Like-named read-outs stand apart in the source and are kept apart here.

How the values were obtained:
IL-2, IL-10, MCP-1 = assay: Chronic EAE in guinea pigs: quantitative reverse transcription-PCR of spinal cord; assay type: in vivo, guinea pig; conditions: for cytokine RNA (IL-2, IL-10, MCP-1) in spinal cord after withdrawal: 10 days after removal
Experimental: Quantitative Reverse Transcription-PCR: IL-2, IL-10, MCP-1. RNA was isolated from 30 mg of frozen guinea pig spinal cord using the S.N.A.P.™ (simple nucleic acid preparation) total RNA Isolation Kit (Invitrogen) according to manufacturer's instructions, modified to include a second DNAse treatment step followed by an additional purification over the S.N.A.P. column.
Primer/probe sequences and concentrations for IL-2, IL-10, and MCP-1 are given in Table 7, as well as the standard RNA used for each gene. RT-PCR was carried out in triplicate using the ABI PRISM® 7700 Sequence Detection System. 50 μl reactions contained 10 to 800 ng of total RNA and primers and probes at the concentrations indicated above in reaction buffer consisting of 6.67% glycerol (Amresco); 5.5 mM MgCl; 300 μM dATP, dCTP, dGTP, and dUTP; 100 nM probe; 1.25 unit of AmpliTaq Gold® DNA Polymerase (Applied Biosystems); 1× TaqMan® Buffer A (TaqMan® PCR Core reagents kit, Applied Biosystems), 20 units of RNase Inhibitor (Roche); 1.25 unit of murine leukemia virus (MULV) Reverse Transcriptase (Applied Biosystems). Reverse-transcription of RNA was carried out at 48° C. for 30 min., followed by a 10 min. denaturing step at 95° C. PCR was carried out by 40 thermo-cycles consisting of 95° C. for 15 seconds followed by 60° C. for 1 minute. Each plate included a standard curve using the standard RNA listed in Table 7 and two additional control samples: 1) a positive control RNA sample used on all plates, 2) a non-template control (NTC).
The correlation coefficients of the standard curves were greater than 0.990 for all data shown. The coefficients of variation for sample triplicates were less than 0.2. Since the RNA used for the standard curve is a heterogeneous mix of RNA containing a constant but unknown amount of the target message, the numbers calculated are relative.

[1] = test system: α4 integrin on lymphocytes and monocytes; assay: Chronic EAE in guinea pigs: FACS analysis of α4 integrin on circulating lymphocytes and monocytes; assay type: in vivo, guinea pig
Experimental: FACS Analysis. On day 80 post-immunization, heparinized blood samples were collected from non-EAE animals, saline-treated animals, N-[N-(3-pyridinesulfonyl)-L-3,3-dimethyl-4-thiaprolyl]-O-[1-methylpiperazin-4-ylcarbonyl]-L-tyrosine isopropyl ester-treated animals and animals 10 days following withdrawal of N-[N-(3-pyridinesulfonyl)-L-3,3-dimethyl-4-thiaprolyl]-O-[1-methylpiperazin-4-ylcarbonyl]-L-tyrosine isopropyl ester. All samples were maintained at 4° C. for all procedures. 150 μl samples were exposed to primary antibody for 30 minutes, washed twice, and then incubated with PE-conjugated goat anti-mouse IgG Fc in the presence of 5% guinea pig serum (Beckman Coulter #PN EM055 1). Red blood cells were lysed with Becton-Dickinson lysing solution and the samples were examined on a FACScan flow cytometer (Becton Dickinson, Mountain View, Calif.) gating on different cell populations by light scatter.

[2] = test system: demyelinated spinal cord lesions in chronic EAE of female Hartley guinea pigs; assay: Spontaneous remyelination in chronic EAE guinea pigs (solochrome-R-cyanin, toluidine blue semithin sections, EM, lesion area analysis); assay type: in vivo, guinea pig; conditions: for area of thinly myelinated axons in toluidine blue semithin sections vs saline / electron microscopy of lesioned spinal cord: day 30 of treatment
[3] = test system: experimental allergic encephalomyelitis in female Hartley guinea pigs; conditions: for mean clinical score day 70-80 after withdrawal (30 days treatment, 10 days off) vs continued treatment: p<0.05 Mann Whitney rank sum test; for escape from treatment: up to 40 days of treatment, compared with antibodies to α4 integrin
[4] = listed as N-[N-(3-pyridinesulfonyl)-L-3,3-dimethyl-4-thiaprolyl]-O-[1-methylpiperzain-4-yl

In the case of `CC(C)OC(=O)[C@H](Cc1ccc(OC(=O)N2CCN(C)CC2)cc1)NC(=O)[C@H]1N(S(=O)(=O)c2cccnc2)CSC1(C)C` [N-[N-(3-pyridinesulfonyl)-L-3,3-dimethyl-4-thiaprolyl]-O-[1-methylpiperazin-4-ylcarbonyl]-L-tyrosine isopropyl ester], the “cytokine RNA (IL-2, IL-10, MCP-1) in spinal cord after withdrawal” value (IL-2, IL-10, MCP-1) is reported as “returned to levels comparable to saline-treated animals”, the “cytokine RNA (IL-2, IL-10, MCP-1) in spinal cord after withdrawal” value (IL-2, IL-10, MCP-1; [4]) is reported as “rose to levels comparable to those in saline-treated animals” and the “IL-2 RNA in lumbar spinal cord” value (IL-2, IL-10, MCP-1; during treatment, vs saline) is reported as “almost no detectable”. The “expression of inflammatory cytokine RNA (IL-2, IL-10, MCP-1) in spinal cord” value (IL-2, IL-10, MCP-1; during treatment, vs saline) was “significant reduction; also recorded: marked decrease”, the “percentage of α4 integrin bright lymphocytes in the circulation after removal” value ([1]; day 80, 10 days after withdrawal) was “returned to saline-treated levels” and the “increase of α4 integrin expression on circulating monocytes in EAE” value ([1]; day 80 post immunization) was “not affected”. For the same compound, the “α4 integrin bright lymphocytes in the circulation vs saline-treated animals” value ([1]; day 80 post immunization) was “large increase”, the “incidence of remyelination (lesions showing myelin pallor as percent of all lesions) vs saline” value ([2]; 10-40 days, time-dependent) was “increased the incidence of remyelination” and the “appearance of spinal cord lesions after 10 days of treatment (solochrome-R-cyanin)” value ([2]; 10 days) was “minimal evidence of myelin pallor”. For the same compound, the “appearance of spinal cord lesions after 20 days of therapy (solochrome-R-cyanin)” value [2] was “many lesions exhibited diffuse pale blue staining”, the “appearance of spinal cord lesions after 20 days of therapy (solochrome-R-cyanin)” value [2, 4] was “diffuse blue stain covering the plaque” and the “appearance of spinal cord lesions after 40 days of therapy (solochrome-R-cyanin)” value [2] was “presented as shadow plaques”. For the same compound, the “appearance of spinal cord lesions after 40 days of therapy (solochrome-R-cyanin)” value [2, 4] was “majority of lesions showed clear myelin pallor”, the “area of remyelination as percent of total lesion area” value ([2]; after 20, 30 or 40 days of therapy) was 50% and the “degree of remyelination of individual lesions” value ([2]; after 20, 30 or 40 days of treatment) was 0-100%. The “area of thinly myelinated axons in toluidine blue semithin sections vs saline” value [2] was “greatly expanded”, the “electron microscopy of lesioned spinal cord” value [2] was “multiple thin myelin layers around large caliber axons” and the “area of thinly myelinated axons in toluidine blue semithin sections vs saline” value [2, 4] was “more extensive”. For the same compound, the “electron microscopy of lesioned spinal cord” value [2, 4] was “multiple layers of thin myelin wrappings around large diameter axons”, the “animals that regained motor function” value ([2]; paralyzed guinea pigs (clinical score 2) treated up to 40 days) was 50% and the “mean clinical score vs saline-treated animals over the treatment period” value ([3]; 30 mg/kg 2×/day s.c. from day 40 post immunization for 10-40 days, p<0.001 Mann Whitney rank sum test) was “significantly lower”. For the same compound, the “start of clinical reversal following the initial treatment” value ([3]; 30 mg/kg twice a day s.c. from day 40 post immunization) was 2 to 3 days, the “adverse side effects during prolonged administration” value ([3]; guinea pig, 30 mg/kg 2×/day s.c. for up to 40 days, listed as N-[N-(3-pyridinesulfonyl)-L-3,3-dimethyl-4-thiaprolyl]-O-[1-methylpiperzain-4-yl, 30 mg/kg) was “no adverse side effects” and the “mean clinical score day 70-80 after withdrawal (30 days treatment, 10 days off) vs continued treatment” value [3] was “significantly greater”. For the same compound, the “mean clinical score day 70-80 after withdrawal (30 days treatment, 10 days off) vs continued treatment” value [3, 4] was “significantly higher”, the “hind limb paresis in animals with an established clinical score of 2” value ([3]; reversion to a clinical score of 1 during treatment) was “reversed the paresis” and the escape from treatment [3] was “None of the animals, however, escaped from treatment”. For the same compound, the escape from treatment [3, 4] was “no escape from treatment”.
